Patent US20090209527A1, “Methods for Using Rapamycin Analogues in the Treatment of Neurological Disorders” (Wyeth, priority 2008, published 2009)
“Also recorded” adds a separate entry of the source.

How the values were obtained:
[1] = system: Spinal cord neuron cultures; experiment: Spinal cord neuron assay; format: cell-based; conditions: Rattus norvegicus, 72 hours treatment, read-out: EC50 in spinal cord neuron assays
Protocol: Spinal cord neuron cultures were prepared from embryonic day 15 (E15) rat embryos (Liu et al., Screening of Immunophilin Ligands by Quantitative Analysis of Neurofilament Expression and Neurite Outgrowth in Cultured Neurons and Cells, J. Neurosci. Methods, 2007 Jul. 30; 163(2):310-20). The embryos were collected and their spinal cords were removed in ice-cold phosphate-buffered saline (PBS) without Ca^2+ and Mg^2+. Dissected pieces of spinal cord tissue were pooled together and transferred to an enzymatic dissociation media containing 20 IU/mL papain in Earle's balanced salt solution (Worthington Biochemical, Freehold, N.J.) and incubated for 30 minutes at 37° C. After enzymatic dissociation, the papain solution was aspirated and the tissue mechanically triturated with a fire-polished Pasteur pipette in complete media [Neurobasal Medium with B-27 supplement (Gibco, Grand Island, N.Y.), 100 IU/mL penicillin, 100 µg/mL streptomycin, […] aphidicolin, 0.5 mM glutamate] containing 2,000 IU/mL DNase and 10 mg/mL ovomucoid protease inhibitor. Single-cell suspensions in complete media were plated on pre-coated poly-L-ornithine/laminin 96-well plates (Becton-Dickinson, Bedford, Mass.) at a density of 1.0×10^4 cells/well. Spinal cord neurons were maintained for 24 hours then exposed to vehicle or various concentrations of compound for 72 hours.

tMCAO in rats = experiment: Transient middle cerebral artery occlusion (tMCAO) model of ischemic stroke; format: in vivo, rat; conditions: for reduction of infarct volume: 72 hours
Protocol: The compound of Example 2 was evaluated in two known rodent models of ischemic stroke. [Bederson J B, Pitts L H, Tsuji M, Nishimura M C, Davis R L, Bartkowski H (1986) Rat middle cerebral artery occlusion: evaluation of the model and development of a neurologic examination. Stroke 17(3): 472-476; Chen S T, Hsu C Y, Hogan E L, Maricq H Balentine J D (1986) A model of focal ischemic stroke in the rat: reproducible extensive cortical infarction. Stroke 17:738-743. DeRyck M, van Reempts J, Duytschaever H, van Deuren B, Clincke G (1992) Neocortical localization of tactile/proprioceptive limb placing reactions in the rat. Brain Res 573:44-60; Longa Z E, Weinstein P R, Carlson S, Cummins R. (1989) Reversible middle cerebral artery occlusion without craniectomy in rats. Stroke 20:294-297.]
The first model is a transient middle cerebral artery occlusion (tMCAO), in which the MCA is occluded for 90 minutes, followed by 72 hours of reperfusion. Rats were subjected to tMCAO and treated with either the compound of Example 2 (3 mg/kg, 10 mg/kg, or 30 mg/kg) via intravenous delivery [iv vehicle: 5% Tween 80, 5% PEG 400, 4% ethanol] or vehicle alone at 4, 6, 24, and 48 hours post-occlusion (4 total doses). Neurological deficits (modified Bederson scale) and weight loss were monitored at 0, 24, 48, and 72 hours post occlusion. At the end of the evaluation period, rats were euthanized and infarct volume was determined. A modified Bederson scale was used to evaluate neurological deficits following stroke. Animals were scored on a scale of 0 to 5, based on five parameters (forelimb flexion, torso twisting, resistant to lateral push, circling to contralateral side, and spontaneous circling). A score of 0 is normal whereas a score of 5 represents severe neurological deficits.

pMCAO in rats = experiment: Further pMCAO studies, treatment paradigms (first dose 2, 6 or 24 hours post-occlusion); format: in vivo, rat; conditions: for neurological function following pMCAO vs vehicle: 5 total doses, 3-week period; for neurological function following pMCAO, long-term: additional 3 months
Description: Rats were subjected to pMCAO and treated with either the compound of Example 2 delivered intravenously into rat tail vein [iv vehicle: 5% Tween 80, 5% PEG 400, 4% ethanol] or vehicle alone. Three different treatment paradigms were used to determine the clinical relevance of the compound of Example 2. Long-term sensorimotor deficits are monitored (tactile/proprioceptive/hindlimb placement tests) over a 3-week and 6-month period. The animals are scored on a scale of 0-12 (normal to severe neurological deficits).
In the first study, the first dose of 10 mg/kg of the compound of Example 2 is given 2 hours post-occlusion, followed by 4 additional doses, 24 hours apart (5 total doses). Neurological deficits were monitored over a 3-week period.
In the second study, the first dose of the compound of Example 2 is given 6 hours post-occlusion, followed by 4 additional doses, 24 hours apart (5 total doses). Neurological deficits were monitored over a 3-week period.
These animals were maintained for an additional 3 months. During this period, neurological deficits were continually monitored, to determine whether the effect seen at 21 days is stable and long lasting.
In the third study, the first dose of the compound of Example 2 is given 24 hours post-occlusion, followed by 4 additional doses, 24 hours apart (5 total doses). Neurological deficits were monitored over a 3-week period.
Brains from animals in the third study were collected and processed for neuronal, regenerative, and cell death markers.

[2] = 10 mg/kg iv, first dose 6 hours post-occlusion
[3] = 30 mg/kg iv, first dose 6 hours post-occlusion
[4] = 30 mg/kg, third study (first dose 24 hours post-occlusion)
[5] = 6 hour post-occlusion, dose not stated

In the case of `CO[C@H]1C[C@@H]2CC[C@@H](C)[C@@](O)(O2)C(=O)C(=O)N2CCCC[C@H]2C(=O)O[C@H]([C@H](C)C[C@@H]2CC[C@@H](O)[C@H](OC)C2)CC(=O)[C@H](C)/C=C(\C)[C@@H](O)[C@@H](OC)C(=O)[C@H](C)C[C@H](C)[C@@H]2CC[C@H](/C=C/1C)ON2c1ccccc1` [Example 2, 9,27-dihydroxy-3-{2-[4-hydroxy-3-methoxycyclohexyl]-1-methylethyl}-10,21-dimethoxy-6,8,12,14,20,26-hexamethyl-37-phenyl-4,9,10,12,13,14,15,16,17,18,21,22,23,24,25,26,27,32,33,34,34a-henicosahydro-3H-23,27-epoxy-18,15-(epoxyimino)pyrido[2,1-c][1,4]oxazacyclohentriacontine-1,5,11,28,29(6H,31H)-pentone], the EC50 [1] is reported as under 1000 nM, the “weight loss following tMCAO” value (tMCAO in rats; 3 mg/kg iv) is reported as “significantly attenuated weight loss” and the “neurological deficits (modified Bederson scale) following tMCAO vs vehicle” value (shortened to “neurological deficits … vs vehicle”) (tMCAO in rats; 3 mg/kg iv at 4, 6, 24 and 48 hours post-occlusion) is reported as “showed trends of improving neurological deficits, but did not reach statistical significance”. For the same molecule, the “reduction of infarct volume” value (tMCAO in rats; 3 mg/kg iv, did not reach statistical significance) was 9%, the “weight loss following tMCAO” value (tMCAO in rats; 10 mg/kg iv) was “significantly attenuated weight loss” and the “neurological deficits … vs vehicle” value (tMCAO in rats; 10 mg/kg iv at 4, 6, 24 and 48 hours post-occlusion) was “significantly improved neurological deficits”. For the same molecule, the “reduction of infarct volume” value (tMCAO in rats; 10 mg/kg iv, significant vs vehicle) was 24%, the “weight loss following tMCAO” value (tMCAO in rats; 30 mg/kg iv) was “significantly attenuated weight loss” and the “neurological deficits … vs vehicle” value (tMCAO in rats; 30 mg/kg iv at 4, 6, 24 and 48 hours post-occlusion) was “significantly improved neurological deficits”. For the same molecule, the “reduction of infarct volume” value (tMCAO in rats; 30 mg/kg iv, significant vs vehicle) was 23%, the “infarct volume following tMCAO in rats (FIG. 10)” value (tMCAO in rats; dose not stated) was “reduces infarct volume” and the “neurological deficits following tMCAO in rats (FIG. 8)” value (tMCAO in rats; dose not stated) was “improves neurological deficits”. For the same molecule, the “weight loss following tMCAO in rats (FIG. 9)” value (tMCAO in rats; dose not stated) was “attenuates weight loss”, the “neurological function following pMCAO vs vehicle” value (pMCAO in rats; 3 mg/kg iv, first dose 6 hours post-occlusion) was “did not improve neurological function” and the “neurological function following pMCAO vs vehicle” value (pMCAO in rats; 3 mg/kg iv, first dose 24 hours post-occlusion) was “did not improve neurological function”. For the same molecule, the “neurological function following pMCAO vs vehicle” value (pMCAO in rats; 10 mg/kg iv, first dose 2 hours post-occlusion) was “significantly improved and accelerated neurological function; also recorded: improves neurological function”, the “neurological function following pMCAO vs vehicle” value (pMCAO in rats; [2]) was “significantly improved and accelerated neurological function” and the “neurological function following pMCAO, long-term” value (pMCAO in rats; [2]) was “further improved neurological function and this improvement was stable and long lasting”. The “neurological function following pMCAO vs vehicle” value (pMCAO in rats; 10 mg/kg iv, first dose 24 hours post-occlusion) was “did not improve neurological function”, the “neurological function following pMCAO vs vehicle” value (pMCAO in rats; [3]) was “significantly improved and accelerated neurological function” and the “neurological function following pMCAO, long-term” value (pMCAO in rats; [3]) was “further improved neurological function and this improvement was stable and long lasting”. The “neurological function following pMCAO vs vehicle” value (pMCAO in rats; 30 mg/kg iv, first dose 24 hours post-occlusion) was “significantly improved and accelerated neurological function”, the “apoptotic cell death (TUNEL labeling) in the hippocampus” value (pMCAO in rats; [4]) was “reducing apoptotic cell death” and the “neuroprotection (Neu-N positive cells) in the hippocampus” value (pMCAO in rats; [4]) was “promotes neuroprotection”. For the same molecule, the “neuroregeneration (GAP-43 labeling) in the cortex” value (pMCAO in rats; [4]) was “promotes neuroregeneration in the cortex”, the “neurological function following pMCAO (3-weeks) in rats (FIG. 12)” value (pMCAO in rats; [5]) was “improves neurological function” and the “neurological function following pMCAO (3 months) in rats (FIG. 13)” value (pMCAO in rats; [5]) was “improves neurological function”. For the same molecule, the “neurological function following pMCAO (3 weeks) in rats (FIG. 14)” value (pMCAO in rats; 24 hour post-occlusion, dose not stated) was “improves neurological function”, the “neuroregeneration in the hippocampus (FIG. 15)” value (pMCAO in rats; dose not stated) was “promotes neuroregeneration in the hippocampus” and the “therapeutic window (time of first administration after onset of stroke)” value (pMCAO in rats; rat models of ischemic stroke) was “at least 24 hours”.
